In article PMC7155171, “Probing the Open Global Health Chemical Diversity Library for Multistage-Active Starting Points for Next-Generation Antimalarials” (ACS Infectious Diseases, 2020):
pIC50: −log10 of the molar value. Like-named read-outs stand apart in the source and are kept apart here.

Experiments:
P. falciparum Dd2 = test: SYBR green I asexual blood stage proliferation assay (96 h); format: cell-based, Plasmodium falciparum; conditions: Plasmodium falciparum, DD2, 11-pt dose response, 96hr
[1] = test system: P. falciparum Dd2 (PfLuc) line expressing firefly luciferase, asexual blood stage; test: microbe, parasite or virus in culture; format: cell-based, Plasmodium falciparum; conditions: Plasmodium falciparum; for IC50: DD2, read-out: CDD P. falciparum Luciferase ABS 11-pt Reconfirmation Dose Response (48hr): IC50 (μM)
[2] = Sybr Green I, read-out: CDD P. falciparum Sybr Green I ABS 11-pt Reconfirmation Dose Response (96hr): IC50
[3] = Sybr Green I, read-out: CDD P. falciparum Sybr Green I ABS 11-pt Reconfirmation Dose Response (96hr): Maximum inhibition (%)
[4] = DD2, 8-pt dose response, 96hr, read-out: CDD P. falciparum Luciferase ABS 8-pt Reconfirmation Dose Response (96hr): IC50
[5] = DD2, 8-pt dose response, 96hr, read-out: CDD P. falciparum Luciferase ABS 8-pt Reconfirmation Dose Response (96hr): Maximum inhibition (%)
[6] = DD2, 11-pt dose response, 48hr, read-out: CDD P. falciparum Luciferase ABS 11-pt Reconfirmation Dose Response (48hr): Maximum inhibition (%)
[7] = DD2, 11-pt dose response, 96hr, read-out: CDD P. falciparum Luciferase ABS 11-pt Reconfirmation Dose Response (96hr): IC50
[8] = DD2, 11-pt dose response, 96hr, read-out: CDD P. falciparum Luciferase ABS 11-pt Reconfirmation Dose Response (96hr): Maximum inhibition (%)
[9] = read-out: P. falciparum Sybr Green I ABS 11-pt Reconfirmation Dose Response (96hr): IC50
[10] = read-out: P. falciparum Sybr Green I ABS 11-pt Reconfirmation Dose Response (96hr): Maximum inhibition (%)
[11] = DD2, read-out: P. falciparum Luciferase ABS 11-pt Reconfirmation Dose Response (48hr): IC50, 11-pt dose response, 48hr
[12] = DD2, 8-pt dose response, 96hr, read-out: P. falciparum Luciferase ABS 8-pt Reconfirmation Dose Response (96hr): IC50
[13] = DD2, 8-pt dose response, 96hr, read-out: P. falciparum Luciferase ABS 8-pt Reconfirmation Dose Response (96hr): Maximum inhibition (%)
[14] = DD2, 11-pt dose response, 48hr, read-out: P. falciparum Luciferase ABS 11-pt Reconfirmation Dose Response (48hr): Maximum inhibition (%)
[15] = DD2, 11-pt dose response, 96hr, read-out: P. falciparum Luciferase ABS 11-pt Reconfirmation Dose Response (96hr): IC50
[16] = DD2, 11-pt dose response, 96hr, read-out: P. falciparum Luciferase ABS 11-pt Reconfirmation Dose Response (96hr): Maximum inhibition (%)

SMILES	pIC50 (P. falciparum Dd2; [2])	Emax (P. falciparum Dd2; [3]) [%]	IC50 ([1]; 11-pt dose response, 48hr) [µM]	pIC50 [1, 4]	Emax [1, 5] [%]	Emax [1, 6] [%]	pIC50 [1, 7]	Emax [1, 8] [%]	pIC50 (P. falciparum Dd2; [9])	Emax (P. falciparum Dd2; [10]) [%]	pIC50 [1, 11]	pIC50 [1, 12]	Emax [1, 13] [%]	Emax [1, 14] [%]	pIC50 [1, 15]	Emax [1, 16] [%]
Fc1ccccc1C1(CNC2CCOC3(CCOCC3)C2)CCCC1 (stereo not drawn) [DDD01251139]	6.23	71.8	8.87	6.02	86.2	69.5	5.84	89.3	–	–	–	–	–	–	–	–
Cc1nc(-c2cc(Cl)cc3c2OC(CN)C3)c[nH]1 (stereo not drawn) [DDD01251343]	< 5.86	–	> 12.5	6.17	–	-0.28	5.43	84.3	–	–	–	–	–	–	–	–
Cc1nc(C2CCNCC2)cc(N(C)Cc2cc3cc(F)ccc3[nH]2)n1 [DDD01251474]	5.49	90.9	2.3	6.00	93.3	98.2	6.38	100	–	–	–	–	–	–	–	–
Cc1nccn1CCCN1CCCC(c2ccccc2)C1 (stereo not drawn) [DDD01251840]	6.06	93.4	3.3	6.60	91.7	83.3	6.85	99.5	–	–	–	–	–	–	–	–
OCc1csc(N2CCCC(COc3cccc(F)c3)C2)n1 (stereo not drawn) [DDD01251951]	–	–	–	–	–	–	–	–	5.79	63	< 4.90	5.77	79.1	45.9	5.40	82.9
CN(CCCO)Cc1cc(Cl)ccc1OCC(O)CN1CCCCCC1 (stereo not drawn) [DDD01251957]	5.56	–	2.71	6.00	94.6	99.2	< 5.86	101	–	–	–	–	–	–	–	–
CN1CCN(Cc2ccccc2Oc2nccc3occc23)CC1 [DDD01252026]	< 5.38	63.4	> 12.5	6.15	83.5	26.1	5.54	85.7	–	–	–	–	–	–	–	–
O=C(C1CNCCO1)N1CCCC(c2ccccc2)(c2ccccc2)C1 (stereo not drawn) [DDD01252287]	–	–	–	–	–	–	–	–	5.24	58.4	5.16	5.66	80.7	53.2	5.69	83.1
COCCn1ccnc1CN(Cc1ccccn1)Cc1sccc1C [DDD01252459]	–	–	–	–	–	–	–	–	< 5.38	87.8	5.46	5.92	90.8	94.7	6.14	99.1
Cc1ccc(C2(CN(C)Cc3sccc3C)CCNCC2)nc1 [DDD01252463]	< 4.90	57.2	> 12.5	6.14	78.8	41.3	5.80	81.7	–	–	–	–	–	–	–	–
c1ccn2c(C3CCCN(c4ncnc5c4CCNC5)C3)nnc2c1 (stereo not drawn) [DDD01252518]	< 4.90	42	> 1.39	6.59	90.8	64.8	6.35	97.6	–	–	–	–	–	–	–	–
CCOc1cccc(CN2CCCC(Nc3ccc(F)cc3)C2)c1O (stereo not drawn) [DDD01252745]	5.73	98.6	1.43	6.22	93.4	96.3	6.15	99.7	–	–	–	–	–	–	–	–
CN(CCO)C[C@@H]1CN(Cc2ccccc2-c2ccccc2)C[C@@H]1CO [DDD01252927]	< 5.86	89.1	8.14	6.24	92	71.8	5.90	92.8	–	–	–	–	–	–	–	–
Cc1ccc(C)c(OCCNC(=O)[C@@H]2CCCCN2)c1 [DDD01252936]	5.12	–	6.36	6.43	89.3	74.3	5.93	87.5	–	–	–	–	–	–	–	–
